Laboratory results as given in ChEMBL document CHEMBL4665910, “Novel Thienopyridines as RIPK2 Inhibitors for Treating Inflammatory Bowel Disease” (ACS Med Chem Lett, 2020).

target: Receptor-interacting serine/threonine-protein kinase 2 (Homo sapiens, UniProt O43353); assay: Inhibition of RIPK2 (unknown origin) incubated for 1 hr by Lanthascreen TR-FRET assay
Sequence (O43353 whole entry): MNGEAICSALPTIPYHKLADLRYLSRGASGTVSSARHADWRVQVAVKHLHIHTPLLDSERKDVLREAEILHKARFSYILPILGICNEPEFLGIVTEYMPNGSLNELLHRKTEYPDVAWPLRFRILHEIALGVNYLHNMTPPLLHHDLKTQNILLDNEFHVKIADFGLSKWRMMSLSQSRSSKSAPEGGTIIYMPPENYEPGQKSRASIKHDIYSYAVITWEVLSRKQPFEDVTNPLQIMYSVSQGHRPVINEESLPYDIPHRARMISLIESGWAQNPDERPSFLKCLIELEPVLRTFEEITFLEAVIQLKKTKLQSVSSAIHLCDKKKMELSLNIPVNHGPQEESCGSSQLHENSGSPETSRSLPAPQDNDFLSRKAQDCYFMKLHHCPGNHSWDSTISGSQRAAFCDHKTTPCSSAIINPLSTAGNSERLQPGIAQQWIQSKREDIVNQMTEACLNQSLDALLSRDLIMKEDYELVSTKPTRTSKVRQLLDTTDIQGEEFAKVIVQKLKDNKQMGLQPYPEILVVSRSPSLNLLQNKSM

| IC50 [nM] | SMILES |
| --- | --- |
| ≤ 10 | C1=C(c2cc3c(Nc4ccc5scnc5c4)ccnc3s2)C2(CCOCC2)NC1 |
| ≤ 10 | CC1C(c2cc3c(Nc4ccc5scnc5c4)c(F)cnc3s2)CCCN1C (stereo unspecified) |
| ≤ 10 | C1=C(c2cc3c(Nc4ccc5scnc5c4)ccnc3s2)CCNCC1 |
| ≤ 10 | CC1NCCC1c1cc2c(Nc3cc4ncsc4cc3F)ccnc2s1 (stereo unspecified) |
| ≤ 10 | C1=C(c2cc3c(Nc4ccc5scnc5c4)ccnc3s2)C2(CCOC2)NC1 (stereo unspecified) |
| ≤ 10 | CC1NCCC=C1c1cc2c(Nc3ccc4scnc4c3)ccnc2s1 (stereo unspecified) |
